{"source": "patent US6737383B1", "about": "“Herbicidal oxadiazolidines” (priority 1999, dated 2004)", "key": {"cocklebur": {"test_system": "cocklebur", "assay": "Test B pre/postemergence cocklebur", "assay_type": "in vivo, Xanthium strumarium", "how_it_was_run": "(§1)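 Response is a visual 0-to-10 score relative to untreated plants, where 0 means no effect and 10 means complete control, taken twelve to sixteen days after application. Treatments went onto soil at planting and onto foliage of 1- to 4-leaf plants, using a surfactant-containing non-phytotoxic solvent.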"}, "corn": {"test_system": "corn", "assay": "Test B pre/postemergence corn", "assay_type": "in vivo, Zea mays", "how_it_was_run": "as §1"}, "crabgrass": {"test_system": "crabgrass", "assay": "Test B pre/postemergence crabgrass", "assay_type": "in vivo, Digitaria sanguinalis", "how_it_was_run": "as §1"}, "giant foxtail": {"test_system": "giant foxtail", "assay": "Test B pre/postemergence giant foxtail", "assay_type": "in vivo, Setaria faberii", "how_it_was_run": "as §1"}, "morningglory": {"test_system": "morningglory", "assay": "Test B pre/postemergence morningglory", "assay_type": "in vivo, Ipomoea hederacea", "how_it_was_run": "as §1"}, "pigweed": {"test_system": "pigweed", "assay": "Test B pre/postemergence pigweed", "assay_type": "in vivo, Amaranthus retroflexus", "how_it_was_run": "as §1"}, "rape": {"test_system": "rape", "assay": "Test B pre/postemergence rape", "assay_type": "in vivo, Brassica napus", "how_it_was_run": "as §1"}, "soybean": {"test_system": "soybean", "assay": "Test B pre/postemergence soybean", "assay_type": "in vivo, Glycine max", "how_it_was_run": "as §1"}, "sugar beet": {"test_system": "sugar beet", "assay": "Test B pre/postemergence sugar beet", "assay_type": "in vivo, Beta vulgaris", "how_it_was_run": "as §1"}, "velvetleaf": {"test_system": "velvetleaf", "assay": "Test B pre/postemergence velvetleaf", "assay_type": "in vivo, Abutilon theophrasti", "how_it_was_run": "as §1"}, "wheat": {"test_system": "wheat", "assay": "Test B pre/postemergence wheat", "assay_type": "in vivo, Triticum aestivum", "how_it_was_run": "as §1"}, "wild oat": {"test_system": "wild oat", "assay": "Test B pre/postemergence wild oat", "assay_type": "in vivo, Avena fatua", "how_it_was_run": "as §1"}, "purple nutsedge": {"test_system": "purple nutsedge", "assay": "Test B pre/postemergence purple nutsedge", "assay_type": "in vivo, Cyperus rotundus", "how_it_was_run": "as §1"}, "[1]": {"conditions": "Postemergence, Rate 62 g/ha, scale 0 to 10, 0 is no effect, 10 is complete control"}, "[2]": {"conditions": "Postemergence, Rate 125 g/ha, scale of 0 to 10 where 0 is no effect and 10 is complete control"}, "[3]": {"conditions": "Postemergence, Rate 250 g/ha, scale 0 to 10, 0 no effect, 10 complete control"}, "[4]": {"conditions": "Preemergence, Rate 62 g/ha, scale 0 to 10 (0 no effect, 10 complete control)"}, "[5]": {"conditions": "Preemergence, Rate 125 g/ha, scale 0 to 10 (0 no effect, 10 complete control)"}, "[6]": {"conditions": "Preemergence, Rate 250 g/ha, scale of 0 to 10 where 0 is no effect and 10 is complete control"}, "[7]": {"conditions": "Preemergence, Rate 500 g/ha, scale 0 (no effect) to 10 (complete control)"}, "[8]": {"conditions": "Rate 500 g/ha, Postemergence, scale 0 to 10, 0 no effect, 10 complete control"}}}
{"smiles": "Cc1ccccc1Cn1c(=O)on(C(=O)N(c2ccc(F)cc2)C(C)C)c1=O", "note": "[Compound 88]", "values": [{"measurement": "Cocklebur plant response rating", "setting": "cocklebur; [1]", "result": 0}, {"measurement": "Cocklebur plant response rating", "setting": "cocklebur; [2]", "result": 0}, {"measurement": "Cocklebur plant response rating", "setting": "cocklebur; [3]", "result": 1}, {"measurement": "Cocklebur plant response rating", "setting": "cocklebur; [4]", "result": 0}, {"measurement": "Plant response rating, Cocklebur", "setting": "cocklebur; [5]", "result": 0}, {"measurement": "Plant response rating, Cocklebur", "setting": "cocklebur; [6]", "result": 0}, {"measurement": "Cocklebur plant response rating", "setting": "cocklebur; [7]", "result": 0}, {"measurement": "Cocklebur plant response rating", "setting": "cocklebur; [8]", "result": 5}, {"measurement": "Corn plant response rating", "setting": "corn; [1]", "result": 0}, {"measurement": "Corn plant response rating", "setting": "corn; [2]", "result": 0}, {"measurement": "Corn plant response rating", "setting": "corn; [3]", "result": 0}, {"measurement": "Corn plant response rating", "setting": "corn; [4]", "result": 0}, {"measurement": "Plant response rating, Corn", "setting": "corn; [5]", "result": 0}, {"measurement": "Plant response rating, Corn", "setting": "corn; [6]", "result": 0}, {"measurement": "Corn plant response rating", "setting": "corn; [7]", "result": 0}, {"measurement": "Corn plant response rating", "setting": "corn; [8]", "result": 0}, {"measurement": "Crabgrass plant response rating", "setting": "crabgrass; [1]", "result": 0}, {"measurement": "Crabgrass plant response rating", "setting": "crabgrass; [2]", "result": 0}, {"measurement": "Crabgrass plant response rating", "setting": "crabgrass; [3]", "result": 9}, {"measurement": "Crabgrass plant response rating", "setting": "crabgrass; [4]", "result": 5}, {"measurement": "Plant response rating, Crabgrass", "setting": "crabgrass; [5]", "result": 7}, {"measurement": "Plant response rating, Crabgrass", "setting": "crabgrass; [6]", "result": 10}, {"measurement": "Crabgrass plant response rating", "setting": "crabgrass; [7]", "result": 10}, {"measurement": "Crabgrass plant response rating", "setting": "crabgrass; [8]", "result": 9}, {"measurement": "Giant foxtail plant response rating", "setting": "giant foxtail; [1]", "result": 0}, {"measurement": "Giant foxtail plant response rating", "setting": "giant foxtail; [2]", "result": 3}, {"measurement": "Giant foxtail plant response rating", "setting": "giant foxtail; [3]", "result": 3}, {"measurement": "Giant foxtail plant response rating", "setting": "giant foxtail; [4]", "result": 4}, {"measurement": "Plant response rating, Giant foxtail", "setting": "giant foxtail; [5]", "result": 6}, {"measurement": "Plant response rating, Giant foxtail", "setting": "giant foxtail; [6]", "result": 10}, {"measurement": "Giant foxtail plant response rating", "setting": "giant foxtail; [7]", "result": 10}, {"measurement": "Giant foxtail plant response rating", "setting": "giant foxtail; [8]", "result": 3}, {"measurement": "Morningglory plant response rating", "setting": "morningglory; [1]", "result": 8}, {"measurement": "Morningglory plant response rating", "setting": "morningglory; [2]", "result": 10}, {"measurement": "Morningglory plant response rating", "setting": "morningglory; [3]", "result": 10}, {"measurement": "Morningglory plant response rating", "setting": "morningglory; [4]", "result": 0}, {"measurement": "Plant response rating, Morningglory", "setting": "morningglory; [5]", "result": 0}, {"measurement": "Plant response rating, Morningglory", "setting": "morningglory; [6]", "result": 0}, {"measurement": "Morningglory plant response rating", "setting": "morningglory; [7]", "result": 0}, {"measurement": "Morningglory plant response rating", "setting": "morningglory; [8]", "result": 10}, {"measurement": "Redroot pigweed plant response rating", "setting": "pigweed; [1]", "result": 3}, {"measurement": "Redroot pigweed plant response rating", "setting": "pigweed; [2]", "result": 3}, {"measurement": "Redroot pigweed plant response rating", "setting": "pigweed; [3]", "result": 3}, {"measurement": "Redroot pigweed plant response rating", "setting": "pigweed; [4]", "result": 9}, {"measurement": "Plant response rating, Redroot pigweed", "setting": "pigweed; [5]", "result": 10}, {"measurement": "Plant response rating, Redroot pigweed", "setting": "pigweed; [6]", "result": 10}, {"measurement": "Redroot pigweed plant response rating", "setting": "pigweed; [7]", "result": 10}, {"measurement": "Redroot pigweed plant response rating", "setting": "pigweed; [8]", "result": 5}, {"measurement": "Rape plant response rating", "setting": "rape; [1]", "result": 0}, {"measurement": "Rape plant response rating", "setting": "rape; [2]", "result": 0}, {"measurement": "Rape plant response rating", "setting": "rape; [3]", "result": 0}, {"measurement": "Rape plant response rating", "setting": "rape; [4]", "result": 0}, {"measurement": "Plant response rating, Rape", "setting": "rape; [5]", "result": 0}, {"measurement": "Plant response rating, Rape", "setting": "rape; [6]", "result": 0}, {"measurement": "Rape plant response rating", "setting": "rape; [7]", "result": 0}, {"measurement": "Rape plant response rating", "setting": "rape; [8]", "result": 3}, {"measurement": "Soybean plant response rating", "setting": "soybean; [1]", "result": 1}, {"measurement": "Soybean plant response rating", "setting": "soybean; [2]", "result": 1}, {"measurement": "Soybean plant response rating", "setting": "soybean; [3]", "result": 1}, {"measurement": "Soybean plant response rating", "setting": "soybean; [4]", "result": 0}, {"measurement": "Plant response rating, Soybean", "setting": "soybean; [5]", "result": 0}, {"measurement": "Plant response rating, Soybean", "setting": "soybean; [6]", "result": 0}, {"measurement": "Soybean plant response rating", "setting": "soybean; [7]", "result": 2}, {"measurement": "Soybean plant response rating", "setting": "soybean; [8]", "result": 1}, {"measurement": "Sugarbeets plant response rating", "setting": "sugar beet; [1]", "result": 3}, {"measurement": "Sugarbeets plant response rating", "setting": "sugar beet; [2]", "result": 5}, {"measurement": "Sugarbeets plant response rating", "setting": "sugar beet; [3]", "result": 7}, {"measurement": "Sugarbeets plant response rating", "setting": "sugar beet; [4]", "result": 2}, {"measurement": "Plant response rating, Sugarbeets", "setting": "sugar beet; [5]", "result": 3}, {"measurement": "Plant response rating, Sugarbeets", "setting": "sugar beet; [6]", "result": 6}, {"measurement": "Sugarbeets plant response rating", "setting": "sugar beet; [7]", "result": 8}, {"measurement": "Sugarbeets plant response rating", "setting": "sugar beet; [8]", "result": 7}, {"measurement": "Velvetleaf plant response rating", "setting": "velvetleaf; [1]", "result": 0}, {"measurement": "Velvetleaf plant response rating", "setting": "velvetleaf; [2]", "result": 0}, {"measurement": "Velvetleaf plant response rating", "setting": "velvetleaf; [3]", "result": 0}, {"measurement": "Velvetleaf plant response rating", "setting": "velvetleaf; [4]", "result": 0}, {"measurement": "Plant response rating, Velvetleaf", "setting": "velvetleaf; [5]", "result": 0}, {"measurement": "Plant response rating, Velvetleaf", "setting": "velvetleaf; [6]", "result": 0}, {"measurement": "Velvetleaf plant response rating", "setting": "velvetleaf; [7]", "result": 2}, {"measurement": "Velvetleaf plant response rating", "setting": "velvetleaf; [8]", "result": 0}, {"measurement": "Wheat plant response rating", "setting": "wheat; [1]", "result": 0}, {"measurement": "Wheat plant response rating", "setting": "wheat; [2]", "result": 0}, {"measurement": "Wheat plant response rating", "setting": "wheat; [3]", "result": 0}, {"measurement": "Wheat plant response rating", "setting": "wheat; [4]", "result": 0}, {"measurement": "Plant response rating, Wheat", "setting": "wheat; [5]", "result": 0}, {"measurement": "Plant response rating, Wheat", "setting": "wheat; [6]", "result": 0}, {"measurement": "Wheat plant response rating", "setting": "wheat; [7]", "result": 0}, {"measurement": "Wheat plant response rating", "setting": "wheat; [8]", "result": 0}, {"measurement": "Wild oats plant response rating", "setting": "wild oat; [1]", "result": 0}, {"measurement": "Wild oats plant response rating", "setting": "wild oat; [2]", "result": 0}, {"measurement": "Wild oats plant response rating", "setting": "wild oat; [3]", "result": 0}, {"measurement": "Wild oats plant response rating", "setting": "wild oat; [4]", "result": 0}, {"measurement": "Plant response rating, Wild oats", "setting": "wild oat; [5]", "result": 2}, {"measurement": "Plant response rating, Wild oats", "setting": "wild oat; [6]", "result": 2}, {"measurement": "Wild oats plant response rating", "setting": "wild oat; [7]", "result": 5}, {"measurement": "Wild oats plant response rating", "setting": "wild oat; [8]", "result": 0}, {"measurement": "Nutsedge plant response rating", "setting": "purple nutsedge; [1]", "result": 0}, {"measurement": "Nutsedge plant response rating", "setting": "purple nutsedge; [2]", "result": 0}, {"measurement": "Nutsedge plant response rating", "setting": "purple nutsedge; [3]", "result": 0}, {"measurement": "Nutsedge plant response rating", "setting": "purple nutsedge; [4]", "result": 0}, {"measurement": "Plant response rating, Nutsedge", "setting": "purple nutsedge; [5]", "result": 0}, {"measurement": "Plant response rating, Nutsedge", "setting": "purple nutsedge; [6]", "result": 0}, {"measurement": "Nutsedge plant response rating", "setting": "purple nutsedge; [7]", "result": 0}, {"measurement": "Nutsedge plant response rating", "setting": "purple nutsedge; [8]", "result": 0}]}
